Six molecules from patent US8563576B2 (Vertex Pharmaceuticals Incorporated, priority 2008, dated 2013) can be followed below.

Holding throughout (assay type): biochemical
One experiment concerns the target PKC theta kinase (Homo sapiens, UniProt Q04759). Kind of experiment: PKC theta kinase coupled-enzyme (NADH consumption) Ki assay. Conditions: 240 μM ATP, 18 nM PKC theta kinase, 30° C. On the procedure:
(§1) l An assay buffer solution was prepared which consisted of 100 mM HEPES (pH 7.5), 10 mM MgCl2, 25 mM NaCl, 0.1 mM EDTA and 0.01% Brij. […] To 60 μL of this enzyme buffer, in a 384 well plate, was added 2 μL of VRT stock solution in DMSO. The mixture was allowed to equilibrate for 10 mins at 30° C. The enzyme reaction was initiated by the addition of 5 μL stock ATP solution prepared in assay buffer to a final assay concentration of 240 μM. Initial rate data was determined from the rate of change of absorbance at 340 nm (corresponding to stoichiometric consumption of NADH) using a Molecular Devices Spectramax plate reader (Sunnyvale, Calif.) over 15 mins at 30° C. […] Ki values were calculated from initial rate data by non-linear regression using the Prism software package (Prism 4.0a, Graphpad Software, San Diego, Calif.).

Another experiment concerns the target PKC delta kinase (Homo sapiens, UniProt Q05655). Kind of experiment: PKC delta kinase coupled-enzyme (NADH consumption) Ki assay. The settings on record: 150 μM ATP, 46 nM PKC delta kinase, 30° C. On the procedure:
as §1, with “An” for “l An”, “To 16” for “To 60”, “added 1” for “added 2”, “of 16” for “of 5”, “of 150” for “of 240”

The target in another experiment is PKC alpha kinase (Homo sapiens, UniProt P17252). Kind of experiment: PKC alpha kinase coupled-enzyme (NADH consumption) Ki assay. Conditions: 130 μM ATP, 4.5 nM PKC alpha kinase, 30° C. The protocol: as §1, with “An” for “l An”, “mM EDTA, 100 μM CaCl2” for “mM EDTA”, “To 16” for “To 60”, “added 1” for “added 2”, “of 16” for “of 5”, “of 130” for “of 240”

Sequence of PKC delta kinase (Q05655 whole entry): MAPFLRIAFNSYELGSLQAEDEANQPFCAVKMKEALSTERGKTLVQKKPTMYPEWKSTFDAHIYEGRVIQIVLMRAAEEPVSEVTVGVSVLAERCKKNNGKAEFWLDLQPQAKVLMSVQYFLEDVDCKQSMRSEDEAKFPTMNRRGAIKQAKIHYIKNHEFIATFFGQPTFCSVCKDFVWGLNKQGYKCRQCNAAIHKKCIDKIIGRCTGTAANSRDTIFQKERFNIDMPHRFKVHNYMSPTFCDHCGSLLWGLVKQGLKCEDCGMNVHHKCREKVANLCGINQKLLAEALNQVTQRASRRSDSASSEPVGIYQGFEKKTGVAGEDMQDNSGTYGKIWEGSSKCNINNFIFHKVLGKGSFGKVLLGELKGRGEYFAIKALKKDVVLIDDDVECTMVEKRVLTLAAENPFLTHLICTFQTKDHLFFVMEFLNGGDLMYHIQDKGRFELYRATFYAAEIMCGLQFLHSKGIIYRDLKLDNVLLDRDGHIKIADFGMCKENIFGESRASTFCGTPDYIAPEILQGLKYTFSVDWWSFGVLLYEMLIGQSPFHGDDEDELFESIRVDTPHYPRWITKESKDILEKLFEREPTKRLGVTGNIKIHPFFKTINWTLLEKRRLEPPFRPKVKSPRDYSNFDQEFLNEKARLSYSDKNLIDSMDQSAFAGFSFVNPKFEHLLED
Sequence of PKC theta kinase (Q04759 whole entry): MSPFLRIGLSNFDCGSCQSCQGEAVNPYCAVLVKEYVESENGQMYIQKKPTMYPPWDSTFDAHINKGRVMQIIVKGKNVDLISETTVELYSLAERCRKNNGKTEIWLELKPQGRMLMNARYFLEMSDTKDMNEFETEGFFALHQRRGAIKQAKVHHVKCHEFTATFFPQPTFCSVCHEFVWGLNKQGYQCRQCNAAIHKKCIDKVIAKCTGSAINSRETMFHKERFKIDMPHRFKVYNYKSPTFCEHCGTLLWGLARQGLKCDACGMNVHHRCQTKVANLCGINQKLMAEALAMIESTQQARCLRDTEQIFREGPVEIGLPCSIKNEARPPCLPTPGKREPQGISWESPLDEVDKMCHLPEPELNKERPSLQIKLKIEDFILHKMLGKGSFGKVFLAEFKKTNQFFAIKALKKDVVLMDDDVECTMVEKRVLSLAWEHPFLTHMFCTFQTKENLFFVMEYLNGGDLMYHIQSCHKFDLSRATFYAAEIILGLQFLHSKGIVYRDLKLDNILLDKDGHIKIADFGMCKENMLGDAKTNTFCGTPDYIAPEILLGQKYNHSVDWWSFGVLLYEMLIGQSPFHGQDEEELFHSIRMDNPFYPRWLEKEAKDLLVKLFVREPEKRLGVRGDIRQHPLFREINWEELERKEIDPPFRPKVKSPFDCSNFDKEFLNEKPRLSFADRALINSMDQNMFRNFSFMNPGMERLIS

Usually Ki stands for the dissociation constant of the complex between target and ligand, obtained from inhibition or displacement. Low readings indicate a stronger hold on the target, high ones a looser hold on the target. At PKC theta kinase, `Cc1sc(N2CCCNCC2)nc1-c1n[nH]c2ncccc12` [Compound 1] gave a Ki greater than 2.8 µM.

Consider `c1cnc2[nH]nc(-c3nn(C4CCNCC4)c4ccccc34)c2c1` [Compound 4, 3-(1-(piperidin-4-yl)-1H-indazol-3-yl)-1H-pyrazolo[3,4-b]pyridine], for which the results for the Ki on PKC theta kinase, at PKC delta kinase and at PKC alpha kinase were less than 0.5 µM, less than 2.8 µM and greater than 1.25 µM, respectively.

For the molecule `CC(C)C[C@H]1CN(c2csc(-c3n[nH]c4ncccc34)n2)CCN1` [Compound 3, (S)-4-(3-isobutylpiperazin-1-yl)-2-(1H-pyrazolo[3,4-b]pyridin-3-yl)thiazole], the Ki on PKC theta kinase is less than 0.05 µM; at PKC delta kinase, less than 2.8 µM; on PKC alpha kinase, greater than 1.25 µM.

`CC(C)C[C@H]1CN(c2cn(C)c(-c3n[nH]c4ncccc34)n2)CCN1` [Compound 6, 3-(4-((S)-3-isobutylpiperazin-1-yl)-1-methyl-1H-imidazol-2-yl)-1H-pyrazolo[3,4-b]pyridine]: the Ki on PKC theta kinase was greater than 0.7 µM; at PKC delta kinase, greater than 2 µM; on PKC alpha kinase it was greater than 1.25 µM.

Take `Cc1cn(C2CCNCC2)nc1-c1n[nH]c2ncccc12` [Compound 5, 3-(4-methyl-1-(piperidin-4-yl)-1H-pyrazol-3-yl)-1H-pyrazolo[3,4-b]pyridine]: the Ki at PKC theta kinase was greater than 0.7 µM; at PKC delta kinase, greater than 2 µM; at PKC alpha kinase, greater than 1.25 µM.

Consider `Cc1sc(N2CCN[C@@H](CC(C)C)C2)nc1-c1n[nH]c2ncccc12` [Compound 2], for which the Ki is less than 0.5 µM on PKC theta kinase, greater than 2 µM at PKC delta kinase and greater than 1.25 µM on PKC alpha kinase.
